Test results taken from patent publication US20080194640A1, “Optically Active Tetrahydronaphthalene Derivative” (priority 2005, published 2008).
Converted amounts (≈) assume the structure as drawn.

Assays:
[1] = Evaluation of biological availability (bioavailability) in rat; assay type: in vivo; details: for AUC: rat, fasted female SD rats, plasma
Protocol: Free base•Form-I crystal was administered to female SD rats fasted from the day before the experiment and the plasma concentration was measured under the following conditions. As a result, the areas under blood concentration-time curve (AUC) of the drug after intravenous administration and oral administration are as shown in Table 1.
• Dosing formulation: 0.5 mg/ml in aqueous physiological saline. • Dose: 1 mg/2 ml/kg • Administration method: bolus administration from the tail vein Collection of blood samples: About 0.1-0.2 mL of blood was taken from the cervical vein at 3 min, 10 min, 30 min, 1 hr, 2 hr, 4 hr and 6 hr after administration. The blood was centrifuged, and the plasma was separated.
• Dosing formulation: 2 mg/ml suspension adjusted by gradually adding aqueous hydroxypropylmethylcellulose solution to the compound of the present invention thoroughly triturated in an agate mortar. • Dose: 10 mg/5 ml/kg • Administration method: Forcible administration into the stomach • Collection of blood samples: About 0.1-0.2 mL of blood was taken from the cervical vein at 30 min, 1 hr, 2 hr, 4 hr, 6 hr, 8 hr and 24 hr after administration. The blood was centrifuged, and the plasma was separated.
The plasma concentration of the administered compound was measured by LC-MS/MS.
LC conditions • Column: Capcellpak C18 UG-120 (2.0φ mm×50 mm, S-5 μm, Shiseido Co., Ltd.) • Mobile phase: acetonitrile • Flow rate: 0.25 mL/min • Column temperature: room temperature • Auto sampler temperature set to: 25° C. • Gradient setting: • 0 min→0.6 min:25%→25% • 0.6 min→3.6 min:25%→75% • 3.6 min→6 min:75%→75% • 6 min→6.1 min:75%→25% • 6.1 min→9.5 min:25%→25% • MS/MS conditions • Ionization method: ESI • Capillary temperature: 350° C. • Sheath gas pressure: 80 psi • Spray voltage: 4.5 kV.
The plasma concentration of the racemate was measured by a similar method, and the biological availability was calculated and found to be 20%.

[2] = Solubility test (Japanese Pharmacopoeia Solution 2); assay type: physicochemical; details: pH 6.8, aqueous buffer, thermodynamic from solid; Japanese Pharmacopoeia Solution 2, 37° C., shaken 30 min; read-out: solubility after 30 min
Protocol: An adequate amount of a sample was taken, and a test solution (The Japanese Pharmacopoeia Solution 2) was added to each to a concentration of about 1 mg/ml. The sample was dispersed by ultrasonication for 2 min, shaken at 37° C. for 30 min, and the solution was filtered through DISMIC13HP ([…]). The filtrate in the early stage (3 ml) was removed, the subsequent filtrate (500 μl) was precisely measured, and the dilution solution (water/acetonitrile/trifluoroacetic acid mixture=500:500:1, 500 μl) was accurately added to give a sample solution. The sample solution and the standard solution prepared in Experimental Example 5 were subjected to the measurement under the similar HPLC conditions as in Experimental Example 5.

[3] = test system: C5a stimulated neutrophil; experiment: Production of reactive oxygen species in C5a-stimulated neutrophil; assay type: cell-based; details: human neutrophil, C5a 3 nmol/L, luminol luminescence, 37° C.; read-out: IC50 value, inhibition of production of reactive oxygen species in C5a stimulated neutrophil
Protocol: A neutrophil fraction was separately taken from human peripheral venous blood using Lympholyte-poly (Cedarlane), and suspended in Hank's Balanced Salt Solution (HBSS, GIBCO BRL) containing 1% fetal bovine serum (FBS) and 1 mmol/L luminol (Wako Pure Chemical Industries, Ltd.). Reactive oxygen species was measured using a luminometer (MicroLumat, Berthold) for 96-well plate. […] Then, 25 μL of C5a (final concentration 3 nmol/L) was added and luminescence produced by the reaction of the luminol and the reactive oxygen species was measured with the lapse of time for 15 min. The rate of inhibition (% inhibition) of the production of reactive oxygen species in C5a stimulated neutrophil by the test compound was calculated by the following formula, wherein the peak value of the production of reactive oxygen species derived by C5a without addition of the test compound is Max, the peak value of the production of reactive oxygen species without addition of the test compound and without C5a stimulation is Min, and the peak value of the production of reactive oxygen species derived by C5a with the addition of the test compound is Test. […]

Q: For `CCn1cc(CN(C(=O)C2CCCc3c(O)cccc32)c2ccc(C(C)C)nc2)cn1` (racemic) [racemate of the compound of Example 3, N-[(1-ethyl-1H-pyrazol-4-yl)methyl]-5-hydroxy-N-(6-isopropylpyridin-3-yl)-1,2,3,4-tetrahydronaphthalene-1-carboxamide, reference compound], which biological availability ([1]; female SD rats, oral 10 mg/kg vs intravenous 1 mg/kg) is on record?
A: 20%

Q: And the AUC ([1]; intravenous administration 1 mg/kg)?
A: 289 ng·h/mL

Q: And the AUC ([1]; oral administration 10 mg/kg)?
A: 572 ng·h/mL

Q: What about the solubility at 30 min [2] of the same compound?
A: 31 µg/mL (≈ 74.1 µM)

Q: What about the IC50 [3] of the same compound?
A: 5.9 nM
